Results published in US10870647B2, “Imidazopyridine derivative, method for preparing same, and pharmaceutical composition containing same as active ingredient for preventing or treating cancer” (DAEGU-GYEONGBUK MEDICAL INNOVATION FOUNDATION, priority 2016, dated 2020).

Key:
Assay in all cases: Kinase selectivity, scanMAX Kinase assay panel (DiscoverX), % control at 1 uM
Assay type in all cases: binding
[1] = target: T1, scanMAX Kinase assay panel (Homo sapiens, UniProt Q13131); conditions: AMPK-alpha1; 1 uM; read-out: Percent Control (%)
T1 construct: purchased DiscoverX
T1 sequence (Q13131 whole entry): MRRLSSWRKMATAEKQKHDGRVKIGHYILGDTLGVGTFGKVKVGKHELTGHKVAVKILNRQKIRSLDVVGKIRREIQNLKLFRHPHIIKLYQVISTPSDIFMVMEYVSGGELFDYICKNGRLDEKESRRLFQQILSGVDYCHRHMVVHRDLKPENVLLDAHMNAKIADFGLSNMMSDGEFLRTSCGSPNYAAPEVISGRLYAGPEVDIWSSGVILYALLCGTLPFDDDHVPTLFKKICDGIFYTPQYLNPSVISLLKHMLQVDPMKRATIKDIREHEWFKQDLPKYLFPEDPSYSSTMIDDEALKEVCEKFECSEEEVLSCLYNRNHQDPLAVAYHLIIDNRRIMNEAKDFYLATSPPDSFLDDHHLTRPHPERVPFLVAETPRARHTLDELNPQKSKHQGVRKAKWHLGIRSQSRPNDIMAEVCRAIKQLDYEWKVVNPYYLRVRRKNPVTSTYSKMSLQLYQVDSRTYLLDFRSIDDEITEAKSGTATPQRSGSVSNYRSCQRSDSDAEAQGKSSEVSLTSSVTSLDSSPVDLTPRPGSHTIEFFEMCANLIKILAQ
Description: (§1) The following experiment was performed to evaluate the inhibitory activity of the compound of the present invention on more enzymes.
(§2) Particularly, among the compounds of the present invention, the compounds of Example 1, Example 12 and Example 78 were selected and assigned to DiscoverX to measure the kinase selectivity. The experiment was performed by using scanMAX™ Kinase assay panel.
(§3) At this time, the concentration of the drug to be treated to the enzyme was adjusted to 1 uM in DMSO, and the control percentage (% control) was determined according to the following Equation 1. [Example Compound−Positive Control/Negative Control−Positive Control]×100 [Equation 1]
(§4) The enzyme selectivity of the compound of the present invention was judged to be active for the enzyme if the % control was <35 (i.e. less than 35%) for each enzyme.

[2] = target: T2, scanMAX Kinase assay panel (Homo sapiens, UniProt P29322); conditions: EPHA8; 1 uM; read-out: Percent Control (%)
T2 construct: purchased DiscoverX
T2 sequence (P29322 28-1005): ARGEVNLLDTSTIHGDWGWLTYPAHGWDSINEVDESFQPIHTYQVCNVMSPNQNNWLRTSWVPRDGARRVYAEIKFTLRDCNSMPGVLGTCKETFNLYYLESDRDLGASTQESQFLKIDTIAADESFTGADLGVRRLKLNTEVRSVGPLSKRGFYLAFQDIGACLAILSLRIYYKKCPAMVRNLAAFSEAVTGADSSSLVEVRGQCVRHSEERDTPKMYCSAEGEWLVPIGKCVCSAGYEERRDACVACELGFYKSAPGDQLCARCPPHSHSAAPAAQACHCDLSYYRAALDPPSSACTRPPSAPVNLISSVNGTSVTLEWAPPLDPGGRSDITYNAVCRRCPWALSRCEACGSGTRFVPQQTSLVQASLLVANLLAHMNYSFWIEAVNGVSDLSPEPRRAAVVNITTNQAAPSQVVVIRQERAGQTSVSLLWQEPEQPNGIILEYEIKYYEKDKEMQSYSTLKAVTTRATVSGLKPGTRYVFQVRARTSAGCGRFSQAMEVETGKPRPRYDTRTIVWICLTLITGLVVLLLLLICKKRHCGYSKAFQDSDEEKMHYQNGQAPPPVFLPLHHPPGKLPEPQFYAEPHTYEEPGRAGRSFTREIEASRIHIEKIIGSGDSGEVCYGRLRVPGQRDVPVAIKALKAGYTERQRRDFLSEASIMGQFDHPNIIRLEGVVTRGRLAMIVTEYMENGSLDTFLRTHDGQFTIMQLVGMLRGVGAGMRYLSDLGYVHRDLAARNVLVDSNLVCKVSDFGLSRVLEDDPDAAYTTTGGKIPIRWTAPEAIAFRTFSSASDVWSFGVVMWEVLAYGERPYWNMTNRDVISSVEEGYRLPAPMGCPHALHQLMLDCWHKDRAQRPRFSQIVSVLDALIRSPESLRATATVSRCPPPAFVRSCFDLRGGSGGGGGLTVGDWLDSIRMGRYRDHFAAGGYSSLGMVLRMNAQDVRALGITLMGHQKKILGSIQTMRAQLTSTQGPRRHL
Description: as §1, §2, §3, §4

[3] = target: T3, scanMAX Kinase assay panel (Homo sapiens, UniProt O14730); conditions: RIOK3; 1 uM; read-out: Percent Control (%)
T3 construct: purchased DiscoverX
T3 sequence (O14730 1-519): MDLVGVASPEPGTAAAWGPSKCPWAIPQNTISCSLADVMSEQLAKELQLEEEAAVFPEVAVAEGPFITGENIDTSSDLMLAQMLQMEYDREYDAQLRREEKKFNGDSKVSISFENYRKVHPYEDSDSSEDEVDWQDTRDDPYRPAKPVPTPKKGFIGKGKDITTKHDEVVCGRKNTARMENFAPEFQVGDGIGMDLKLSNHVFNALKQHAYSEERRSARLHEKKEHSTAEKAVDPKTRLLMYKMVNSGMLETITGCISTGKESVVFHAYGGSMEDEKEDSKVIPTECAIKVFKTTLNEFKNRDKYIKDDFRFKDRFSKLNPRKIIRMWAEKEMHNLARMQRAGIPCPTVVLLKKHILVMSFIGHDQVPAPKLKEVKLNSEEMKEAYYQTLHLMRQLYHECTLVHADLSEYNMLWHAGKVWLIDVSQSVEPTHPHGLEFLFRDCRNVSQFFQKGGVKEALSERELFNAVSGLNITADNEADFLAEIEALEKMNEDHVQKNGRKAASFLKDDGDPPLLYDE
Description: as §1, §2, §3, §4

[4] = target: T4, scanMAX Kinase assay panel (Homo sapiens, UniProt Q9UM73, L1196M); conditions: ALK (L1196M); 1 uM; read-out: Percent Control (%)
T4 construct: purchased DiscoverX
T4 sequence (Q9UM73 19-1620 L1196M): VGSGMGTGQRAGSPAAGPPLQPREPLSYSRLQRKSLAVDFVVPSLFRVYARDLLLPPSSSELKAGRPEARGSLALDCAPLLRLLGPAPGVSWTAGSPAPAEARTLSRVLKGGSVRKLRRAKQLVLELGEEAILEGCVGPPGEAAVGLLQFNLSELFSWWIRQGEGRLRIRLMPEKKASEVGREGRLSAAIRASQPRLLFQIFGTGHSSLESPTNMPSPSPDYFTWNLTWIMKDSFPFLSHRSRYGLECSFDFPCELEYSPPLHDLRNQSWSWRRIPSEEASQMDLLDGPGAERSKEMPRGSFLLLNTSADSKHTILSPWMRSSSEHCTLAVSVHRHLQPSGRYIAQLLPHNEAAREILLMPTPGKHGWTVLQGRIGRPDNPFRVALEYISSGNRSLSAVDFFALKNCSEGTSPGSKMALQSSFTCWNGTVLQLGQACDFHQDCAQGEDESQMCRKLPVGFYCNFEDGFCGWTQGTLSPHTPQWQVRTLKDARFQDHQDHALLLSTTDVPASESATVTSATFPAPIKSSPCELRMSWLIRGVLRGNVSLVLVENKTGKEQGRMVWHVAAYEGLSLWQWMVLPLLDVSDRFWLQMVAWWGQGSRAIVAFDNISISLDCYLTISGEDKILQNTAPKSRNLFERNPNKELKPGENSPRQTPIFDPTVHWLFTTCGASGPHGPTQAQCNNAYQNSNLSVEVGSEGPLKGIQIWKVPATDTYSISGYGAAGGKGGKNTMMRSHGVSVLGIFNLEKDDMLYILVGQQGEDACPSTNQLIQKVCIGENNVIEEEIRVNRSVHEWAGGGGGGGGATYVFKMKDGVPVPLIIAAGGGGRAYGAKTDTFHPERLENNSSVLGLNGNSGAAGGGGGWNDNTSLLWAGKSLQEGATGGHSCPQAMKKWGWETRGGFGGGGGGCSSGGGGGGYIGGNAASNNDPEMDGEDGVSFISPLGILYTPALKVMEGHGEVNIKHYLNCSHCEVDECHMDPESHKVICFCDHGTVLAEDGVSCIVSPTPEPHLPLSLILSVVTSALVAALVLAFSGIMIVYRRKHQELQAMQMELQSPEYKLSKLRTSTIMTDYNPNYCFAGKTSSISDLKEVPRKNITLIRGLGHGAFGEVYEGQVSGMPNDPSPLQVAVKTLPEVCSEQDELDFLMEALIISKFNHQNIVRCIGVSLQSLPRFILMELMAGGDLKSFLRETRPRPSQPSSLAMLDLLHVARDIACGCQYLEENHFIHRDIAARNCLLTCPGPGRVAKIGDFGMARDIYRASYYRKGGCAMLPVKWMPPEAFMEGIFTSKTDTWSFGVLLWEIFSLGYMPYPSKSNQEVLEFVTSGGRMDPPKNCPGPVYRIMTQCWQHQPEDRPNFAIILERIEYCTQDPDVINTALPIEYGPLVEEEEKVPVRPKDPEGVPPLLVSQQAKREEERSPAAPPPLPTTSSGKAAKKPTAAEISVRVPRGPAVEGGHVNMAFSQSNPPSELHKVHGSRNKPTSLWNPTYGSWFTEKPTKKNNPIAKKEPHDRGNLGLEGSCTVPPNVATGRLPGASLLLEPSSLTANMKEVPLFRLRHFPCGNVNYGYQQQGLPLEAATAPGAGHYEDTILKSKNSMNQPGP
Description: as §1, §2, §3, §4

[5] = target: T5, scanMAX Kinase assay panel (Homo sapiens, UniProt Q9UM73, C1156Y); conditions: ALK (C1156Y); 1 uM; read-out: Percent Control (%)
T5 construct: purchased DiscoverX
T5 sequence (Q9UM73 19-1620 C1156Y): as the sequence (Q9UM73 19-1620 L1196M) above, with C1138Y, M1178L counted along it
Description: as §1, §2, §3, §4

[6] = target: T6, scanMAX Kinase assay panel (Homo sapiens, UniProt P50750); conditions: CDK9; 1 uM; read-out: Percent Control (%)
T6 construct: purchased DiscoverX
T6 sequence (P50750 whole entry): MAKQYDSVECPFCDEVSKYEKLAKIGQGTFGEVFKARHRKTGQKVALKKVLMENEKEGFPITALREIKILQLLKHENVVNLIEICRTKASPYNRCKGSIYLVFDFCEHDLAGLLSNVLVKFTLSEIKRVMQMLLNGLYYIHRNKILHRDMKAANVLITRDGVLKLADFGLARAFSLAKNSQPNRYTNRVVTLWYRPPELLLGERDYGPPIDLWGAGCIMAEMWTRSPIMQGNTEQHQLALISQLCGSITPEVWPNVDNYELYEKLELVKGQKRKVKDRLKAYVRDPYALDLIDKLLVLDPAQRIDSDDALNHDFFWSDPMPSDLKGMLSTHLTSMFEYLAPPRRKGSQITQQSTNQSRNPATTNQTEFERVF
Description: as §1, §2, §3, §4

[7] = target: T7, scanMAX Kinase assay panel (Homo sapiens, UniProt Q52WX2); conditions: SBK1; 1 uM; read-out: Percent Control (%)
T7 construct: purchased DiscoverX
T7 sequence (Q52WX2 whole entry): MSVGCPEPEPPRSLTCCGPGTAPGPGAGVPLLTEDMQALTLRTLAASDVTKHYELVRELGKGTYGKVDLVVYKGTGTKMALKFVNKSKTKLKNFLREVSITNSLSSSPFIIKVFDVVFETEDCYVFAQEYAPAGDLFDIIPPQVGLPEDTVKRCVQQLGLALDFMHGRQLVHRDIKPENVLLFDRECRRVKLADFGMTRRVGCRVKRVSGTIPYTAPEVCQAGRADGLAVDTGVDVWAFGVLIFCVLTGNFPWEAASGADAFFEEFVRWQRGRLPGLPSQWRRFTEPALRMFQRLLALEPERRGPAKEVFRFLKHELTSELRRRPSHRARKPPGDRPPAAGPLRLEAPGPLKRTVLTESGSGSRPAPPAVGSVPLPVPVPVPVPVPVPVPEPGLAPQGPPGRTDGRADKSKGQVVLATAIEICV
Description: as §1, §2, §3, §4

[8] = target: T8, scanMAX Kinase assay panel (Homo sapiens, UniProt Q8N568); conditions: DCAMKL2; 1 uM; read-out: Percent Control (%)
T8 construct: purchased DiscoverX
T8 sequence (Q8N568 whole entry): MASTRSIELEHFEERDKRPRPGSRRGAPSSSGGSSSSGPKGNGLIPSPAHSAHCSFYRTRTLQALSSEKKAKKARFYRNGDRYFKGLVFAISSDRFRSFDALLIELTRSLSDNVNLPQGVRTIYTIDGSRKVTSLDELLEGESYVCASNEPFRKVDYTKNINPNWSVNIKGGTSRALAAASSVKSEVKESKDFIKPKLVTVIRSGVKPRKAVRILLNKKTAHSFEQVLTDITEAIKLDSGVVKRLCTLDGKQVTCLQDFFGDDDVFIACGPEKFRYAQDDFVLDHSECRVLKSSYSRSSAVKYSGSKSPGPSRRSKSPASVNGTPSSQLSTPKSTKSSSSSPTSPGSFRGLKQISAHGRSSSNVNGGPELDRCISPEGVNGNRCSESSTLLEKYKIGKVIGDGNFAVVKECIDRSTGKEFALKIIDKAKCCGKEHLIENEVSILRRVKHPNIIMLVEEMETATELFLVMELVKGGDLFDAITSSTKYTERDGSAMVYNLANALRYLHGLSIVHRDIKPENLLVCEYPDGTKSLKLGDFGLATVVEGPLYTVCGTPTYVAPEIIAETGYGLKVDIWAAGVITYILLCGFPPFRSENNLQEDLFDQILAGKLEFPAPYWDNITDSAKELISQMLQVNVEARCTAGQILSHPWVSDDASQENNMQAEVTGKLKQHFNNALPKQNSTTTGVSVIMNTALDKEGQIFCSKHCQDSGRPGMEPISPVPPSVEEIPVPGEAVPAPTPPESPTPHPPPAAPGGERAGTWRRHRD
Description: as §1, §2, §3, §4

SMILES | remaining binding at 1 µM [1] | remaining binding at 1 µM [2] | remaining binding at 1 µM [3] | remaining binding at 1 µM [4] | remaining binding at 1 µM [5] | remaining binding at 1 µM [6] | remaining binding at 1 µM [7] | remaining binding at 1 µM [8]
Cc1ccc(C(=O)Nc2ccc(CN3CCN(C)CC3)c(C(F)(F)F)c2)cc1C#Cc1cnc2c(Nc3cnn(C)c3)cccn12 [Example 1, 4-methyl-3-((8-((1-methyl-1H-pyrazol-4-yl)amino)imidazo[1,2-a]pyridin-3-yl)ethynyl)-N-(4-((4-methylpiperazin-1-yl)methyl)-3-(trifluoromethyl)phenyl)benzamide] | 7% | 0% | 94% | 29% | 76% | 72% | 89% | 91%
Cc1cn(-c2cc(NC(=O)c3ccc(C)c(C#Cc4cnc5c(Nc6cnn(C)c6)cccn45)c3)cc(C(F)(F)F)c2)cn1 [Example 12, 4-methyl-N-(3-(4-methyl-1H-imidazol-1-yl)-5-(trifluoromethyl)phenyl)-3-((8-((1-methyl-1H-pyrazol-4-yl)amino)imidazo[1,2-a]pyridin-3-yl)ethynyl)benzamide] | 74% | 1% | 96% | 100% | 100% | 88% | 94% | 78%
Cc1ccc(NC(=O)C2(C(=O)Nc3ccc(F)cc3)CC2)cc1C#Cc1cnc2c(Nc3cnn(C(C)C)c3)cccn12 [Example 78] | 100% | 46% | 95% | 100% | 100% | 100% | 100% | 100%
